# Measured values reported in PubChem BioAssay (NCI).
#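 Following 48 hours of exposure in 96-well plates, responses at five concentrations were used to interpolate endpoints linearly. GI50: concentration for 50% inhibition of growth. At the TGI there is no net growth.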
# How the values were obtained:
# Test in all cases: inhibition of tumour cell growth, NCI panel, 48 h
# [1] = system: ACHN renal
# [2] = system: NCI-H226 lung
# [3] = system: MDA-MB-435
# [4] = system: CCRF-CEM leukemia
# [5] = system: IGROV1 ovarian
# [6] = system: KM12 colon
# [7] = system: HCC-2998 colon
# [8] = system: NCI-H460 lung
# [9] = system: MCF7 breast
# [10] = system: T-47D breast
# [11] = system: BT-549 breast
# [12] = system: HOP-62 NSCLC
# [13] = system: SW-620 colon
# [14] = system: SN12C renal
# [15] = system: SR leukemia
# [16] = system: OVCAR-4 ovarian
# [17] = system: MDA-MB-231 breast
# [18] = system: SF-295 CNS
# [19] = system: UACC-257 melanoma
# [20] = system: HCT-15 colon
# [21] = system: NCI-H23 lung
# [22] = system: COLO 205 colon
# [23] = system: SK-MEL-28 melanoma
# [24] = system: A549 NSCLC
# [25] = system: DU-145 prostate
# [26] = system: A498 renal
# [27] = system: SF-539 CNS
# [28] = system: CAKI-1 renal
# [29] = system: UO-31 renal
# [30] = system: LOX IMVI melanoma
# [31] = system: SK-MEL-2 melanoma
# [32] = system: SK-MEL-5 melanoma
# [33] = system: RPMI-8226 leukemia
# [34] = system: RXF 393 renal
# [35] = system: HT29 colon
# [36] = system: HCT-116 colon
# [37] = system: SK-OV-3 ovarian
# [38] = system: HL-60(TB) leukemia
# [39] = system: SF-268 CNS
# [40] = system: U251 CNS
# [41] = system: OVCAR-8 ovarian
# [42] = system: OVCAR-3 ovarian
# [43] = system: EKVX NSCLC
# [44] = system: MOLT-4 leukemia
# [45] = system: PC-3 prostate
# [46] = system: HS 578T breast
# [47] = system: SNB-19 CNS
# [48] = system: SNB-75 CNS
# [49] = system: OVCAR-5 ovarian
# [50] = system: NCI-H522 lung
# [51] = system: 786-0 renal
# [52] = system: UACC-62 melanoma
# [53] = system: MALME-3M melanoma
# [54] = system: TK-10 renal
# [55] = system: HOP-92 NSCLC
# [56] = system: K-562 leukemia
structure (smiles),measurement,setting,value
COc1cc2cc(Oc3ccc(NC(=O)c4ccc(Cl)c(Cl)c4)cc3)c(C)nc2cc1OC,GI50,[1],8.63 µM
same,TGI,[1],> 100 µM
same,GI50,[2],> 100 µM
same,TGI,[2],> 100 µM
same,GI50,[3],> 100 µM
same,TGI,[3],> 100 µM
same,GI50,[4],4.44 µM
same,TGI,[4],> 100 µM
same,GI50,[5],> 100 µM
same,TGI,[5],> 100 µM
same,GI50,[6],12.7 µM
same,TGI,[6],> 100 µM
same,GI50,[7],> 100 µM
same,TGI,[7],> 100 µM
same,GI50,[8],25.4 µM
same,TGI,[8],> 100 µM
same,GI50,[9],5.32 µM
same,TGI,[9],> 100 µM
same,GI50,[10],3.28 µM
same,TGI,[10],> 100 µM
same,GI50,[11],3.91 µM
same,TGI,[11],> 100 µM
same,GI50,[12],> 100 µM
same,TGI,[12],> 100 µM
same,GI50,[13],> 100 µM
same,TGI,[13],> 100 µM
same,GI50,[14],> 100 µM
same,TGI,[14],> 100 µM
same,GI50,[15],19.6 µM
same,TGI,[15],> 100 µM
same,GI50,[16],5.26 µM
same,TGI,[16],> 100 µM
same,GI50,[17],9.89 µM
same,TGI,[17],> 100 µM
same,GI50,[18],1.59 µM
same,TGI,[18],> 100 µM
same,GI50,[19],> 100 µM
same,TGI,[19],> 100 µM
same,GI50,[20],7.94 µM
same,TGI,[20],> 100 µM
same,GI50,[21],6.68 µM
same,TGI,[21],> 100 µM
same,GI50,[22],6.44 µM
same,TGI,[22],> 100 µM
same,GI50,[23],> 100 µM
same,TGI,[23],> 100 µM
same,GI50,[24],> 100 µM
same,TGI,[24],> 100 µM
same,GI50,[25],> 100 µM
same,TGI,[25],> 100 µM
same,GI50,[26],20.6 µM
same,TGI,[26],> 100 µM
same,GI50,[27],> 100 µM
same,TGI,[27],> 100 µM
same,GI50,[28],5.96 µM
same,TGI,[28],> 100 µM
same,GI50,[29],8.44 µM
same,TGI,[29],> 100 µM
same,GI50,[30],> 100 µM
same,TGI,[30],> 100 µM
same,GI50,[31],> 100 µM
same,TGI,[31],> 100 µM
same,GI50,[32],4.99 µM
same,TGI,[32],> 100 µM
same,GI50,[33],3.7 µM
same,TGI,[33],> 100 µM
same,GI50,[34],9.66 µM
same,TGI,[34],> 100 µM
same,GI50,[35],7.89 µM
same,TGI,[35],> 100 µM
same,GI50,[36],4.26 µM
same,TGI,[36],> 100 µM
same,GI50,[37],> 100 µM
same,TGI,[37],> 100 µM
same,GI50,[38],> 100 µM
same,TGI,[38],> 100 µM
same,GI50,[39],> 100 µM
same,TGI,[39],> 100 µM
same,GI50,[40],> 100 µM
same,TGI,[40],> 100 µM
same,GI50,[41],> 100 µM
same,TGI,[41],> 100 µM
same,GI50,[42],9.34 µM
same,TGI,[42],> 100 µM
same,GI50,[43],6.8 µM
same,TGI,[43],> 100 µM
same,GI50,[44],6.12 µM
same,TGI,[44],> 100 µM
same,GI50,[45],4.77 µM
same,TGI,[45],> 100 µM
same,GI50,[46],7.24 µM
same,TGI,[46],> 100 µM
same,GI50,[47],> 100 µM
same,TGI,[47],> 100 µM
same,GI50,[48],> 100 µM
same,TGI,[48],> 100 µM
same,GI50,[49],> 100 µM
same,TGI,[49],> 100 µM
same,GI50,[50],6.27 µM
same,TGI,[50],> 100 µM
same,GI50,[51],> 100 µM
same,TGI,[51],> 100 µM
same,GI50,[52],> 100 µM
same,TGI,[52],> 100 µM
same,GI50,[53],> 100 µM
same,TGI,[53],> 100 µM
same,GI50,[54],9.81 µM
same,TGI,[54],> 100 µM
same,GI50,[55],16.1 µM
same,TGI,[55],> 100 µM
same,GI50,[56],7.23 µM
same,TGI,[56],> 100 µM
